Assay results published in publication PMC5218480 (PLoS ONE, 2017).

System: MV-4-11 cells
Assay: Gene expression microarray analysis (Affymetrix PrimeView) and GSEA
Assay type: cell-based, human
Set-up: RFU PODN (11730768_x_at) / Fold change /veh PODN (11730768_x_at) / RFU LINC00158 (11744669_a_at) / Fold change /veh LINC00158 (11744669_a_at) / RFU DUSP10 (11751237_a_at) / Fold change /veh DUSP10 (11751237_a_at) / RFU ID3 (11757404_x_at) / Fold change /veh ID3 (11757404_x_at) / RFU PLEKHG5 (11737974_s_at) / Fold change /veh PLEKHG5 (11737974_s_at) / RFU LRRC4B (11730491_at) / Fold change /veh LRRC4B (11730491_at) / RFU GIMAP4 (11747438_a_at) / Fold change /veh GIMAP4 (11747438_a_at) / RFU KRT8 (11758183_x_at) / Fold change /veh KRT8 (11758183_x_at) / RFU CNN1 (11734310_a_at) / Fold change /veh CNN1 (11734310_a_at) / RFU VPS37D (11726825_at) / Fold change /veh VPS37D (11726825_at) / RFU C10orf10 (11716522_x_at) / Fold change /veh C10orf10 (11716522_x_at) / RFU KIR2DL2 /// KIR2DL4 /// KIR2DL5A /// KIR2DL5B /// KIR2DS1 /// KIR2DS2 /// KIR2DS3 /// KIR2DS4 /// KIR3DL3 /// KIR3DL3 /// KIR3DS1 (11738374_at) / Fold change /veh KIR2DL2 /// KIR2DL4 /// KIR2DL5A /// KIR2DL5B /// KIR2DS1 /// KIR2DS2 /// KIR2DS3 /// KIR2DS4 /// KIR3DL3 /// KIR3DL3 /// KIR3DS1 (11738374_at) / RFU C1QL1 (11718748_at) / Fold change /veh C1QL1 (11718748_at) / RFU TMPRSS4 (11747572_a_at) / Fold change /veh TMPRSS4 (11747572_a_at) / RFU HAMP (11756126_x_at) / Fold change /veh HAMP (11756126_x_at) / RFU RNFT2 (11725882_a_at) / Fold change /veh RNFT2 (11725882_a_at) / RFU NR4A2 (11747474_a_at) / Fold change /veh NR4A2 (11747474_a_at) / RFU ABCC12 (11746883_a_at) / Fold change /veh ABCC12 (11746883_a_at) / RFU TMEM136 (11760407_x_at) / Fold change /veh TMEM136 (11760407_x_at) / RFU CLDN22 /// WWC2 (11732394_at) / Fold change /veh CLDN22 /// WWC2 (11732394_at) / RFU HLA-DPB1 (11760878_x_at) / Fold change /veh HLA-DPB1 (11760878_x_at) / RFU SPINT1 (11716480_a_at) / Fold change /veh SPINT1 (11716480_a_at) / RFU GAP43 (11754022_s_at) / Fold change /veh GAP43 (11754022_s_at) / RFU A4GNT (11735810_at) / Fold change /veh A4GNT (11735810_at) / RFU PRB3 (11715151_x_at) / Fold change /veh PRB3 (11715151_x_at) / RFU TUBB4B (11761932_at) / Fold change /veh TUBB4B (11761932_at) / RFU CAPN14 (11732068_a_at) / Fold change /veh CAPN14 (11732068_a_at) / RFU TMCC2 (11721928_a_at) / Fold change /veh TMCC2 (11721928_a_at) / RFU IRGQ (11745062_a_at) / Fold change /veh IRGQ (11745062_a_at) / RFU FAM174B (11720279_a_at) / Fold change /veh FAM174B (11720279_a_at) / RFU TMPRSS4 (11748680_a_at) / Fold change /veh TMPRSS4 (11748680_a_at) / RFU FAM212B (11763350_a_at) / Fold change /veh FAM212B (11763350_a_at) / RFU PLEKHG5 (11743358_a_at) / Fold change /veh PLEKHG5 (11743358_a_at) / RFU ZSCAN30 (11745921_a_at) / Fold change /veh ZSCAN30 (11745921_a_at) / RFU CMKLR1 (11741424_a_at) / Fold change /veh CMKLR1 (11741424_a_at) / RFU LOC101060620 /// MAPK8IP1 (11723275_at) / Fold change /veh LOC101060620 /// MAPK8IP1 (11723275_at) / RFU SPTSSB (11747773_x_at) / Fold change /veh SPTSSB (11747773_x_at) / RFU PRSS12 (11739890_at) / Fold change /veh PRSS12 (11739890_at) / RFU BIN1 (11741810_x_at) / Fold change /veh BIN1 (11741810_x_at) / RFU WNT11 (11732464_a_at) / Fold change /veh WNT11 (11732464_a_at) / RFU C10orf10 (11716521_a_at) / Fold change /veh C10orf10 (11716521_a_at) / RFU C5orf56 (11738089_at) / Fold change /veh C5orf56 (11738089_at) / RFU CYB561 (11721691_x_at) / Fold change /veh CYB561 (11721691_x_at) / RFU ANKRD19P (11752326_a_at) / Fold change /veh ANKRD19P (11752326_a_at) / RFU OR2T12 /// OR2T33 /// OR2T8 (11738714_s_at) / Fold change /veh OR2T12 /// OR2T33 /// OR2T8 (11738714_s_at) / RFU VCAN (11748164_a_at) / Fold change /veh VCAN (11748164_a_at) / RFU JSRP1 (11732532_at) / Fold change /veh JSRP1 (11732532_at) / RFU KRTAP10-11 (11738290_x_at) / Fold change /veh KRTAP10-11 (11738290_x_at) / RFU MYO3A (11730013_a_at) / Fold change /veh MYO3A (11730013_a_at) / RFU EBF3 (11725865_a_at) / Fold change /veh EBF3 (11725865_a_at) / RFU CAMK2N1 (11719241_x_at) / Fold change /veh CAMK2N1 (11719241_x_at) / RFU C5orf56 (11738088_a_at) / Fold change /veh C5orf56 (11738088_a_at) / RFU OLFML3 (11715873_a_at) / Fold change /veh OLFML3 (11715873_a_at) / RFU LOC100653217 /// NTM (11731650_a_at) / Fold change /veh LOC100653217 /// NTM (11731650_a_at) / RFU MAPK11 (11762145_a_at) / Fold change /veh MAPK11 (11762145_a_at) / RFU FIZ1 (11724087_x_at) / Fold change /veh FIZ1 (11724087_x_at) / RFU OASL (11726364_x_at) / Fold change /veh OASL (11726364_x_at) / RFU SOX15 (11748057_x_at) / Fold change /veh SOX15 (11748057_x_at) / RFU CD79A (11719716_a_at) / Fold change /veh CD79A (11719716_a_at) / RFU HIST1H1D (11736915_at) / Fold change /veh HIST1H1D (11736915_at) / RFU CASKIN2 (11723855_a_at) / Fold change /veh CASKIN2 (11723855_a_at) / RFU LOC730098 (11760151_x_at) / Fold change /veh LOC730098 (11760151_x_at) / RFU OR4N2 (11742367_at) / Fold change /veh OR4N2 (11742367_at) / RFU PRRT2 (11749266_a_at) / Fold change /veh PRRT2 (11749266_a_at) / RFU SNX32 (11753110_a_at) / Fold change /veh SNX32 (11753110_a_at) / RFU CDHR5 (11726645_a_at) / Fold change /veh CDHR5 (11726645_a_at) / RFU RCAN1 (11760418_a_at) / Fold change /veh RCAN1 (11760418_a_at) / RFU FAM167A (11723789_a_at) / Fold change /veh FAM167A (11723789_a_at) / RFU FAM26E (11764081_at) / Fold change /veh FAM26E (11764081_at) / RFU ISYNA1 (11749810_s_at) / Fold change /veh ISYNA1 (11749810_s_at) / RFU ACY1 (11761880_at) / Fold change /veh ACY1 (11761880_at) / RFU 11764098_at / Fold change /veh 11764098_at / RFU SAMD14 (11745864_x_at) / Fold change /veh SAMD14 (11745864_x_at) / RFU NPB (11741838_a_at) / Fold change /veh NPB (11741838_a_at) / RFU TMPRSS6 (11731388_a_at) / Fold change /veh TMPRSS6 (11731388_a_at) / RFU KRTAP10-2 (11738614_at) / Fold change /veh KRTAP10-2 (11738614_at) / RFU ARHGAP8 /// PRR5-ARHGAP8 (11727945_x_at) / Fold change /veh ARHGAP8 /// PRR5-ARHGAP8 (11727945_x_at) / RFU KRTAP5-7 /// NADSYN1 (11734609_at) / Fold change /veh KRTAP5-7 /// NADSYN1 (11734609_at) / RFU RASL12 (11751679_a_at) / Fold change /veh RASL12 (11751679_a_at) / RFU CDKN2B (11736163_a_at) / Fold change /veh CDKN2B (11736163_a_at) / RFU PRF1 (11729649_at) / Fold change /veh PRF1 (11729649_at) / RFU, ZNF638 /// ZNF638-IT1 / Fold change vs veh, ZNF638 /// ZNF638-IT1 / RFU, PANK3 / Fold change vs veh, PANK3 / RFU, SH3YL1 / Fold change vs veh, SH3YL1 / RFU, ZEB2 / Fold change vs veh, ZEB2 / RFU, NRIP1 / Fold change vs veh, NRIP1 / RFU, PTTG1IP / Fold change vs veh, PTTG1IP / RFU, CAPN2 / Fold change vs veh, CAPN2 / RFU, MED14 / Fold change vs veh, MED14 / RFU, SNORA58 / Fold change vs veh, SNORA58 / RFU, C1orf63 / Fold change vs veh, C1orf63 / RFU, LRRFIP1 / Fold change vs veh, LRRFIP1 / RFU, NDUFAF7 / Fold change vs veh, NDUFAF7 / RFU, SLC12A2 / Fold change vs veh, SLC12A2 / RFU, IBTK / Fold change vs veh, IBTK / RFU, ESF1 / Fold change vs veh, ESF1 / Fold change vs veh, TMEM50B / RFU, TAOK1 / Fold change vs veh, TAOK1 / RFU, ACBD3 / Fold change vs veh, ACBD3 / RFU, TMA16 / Fold change vs veh, TMA16 / RFU, RWDD3 / Fold change vs veh, RWDD3 / RFU, BCAT1 / Fold change vs veh, BCAT1 / RFU, EDEM3 / Fold change vs veh, EDEM3 / RFU, TMEM33 / Fold change vs veh, TMEM33 / RFU, WDR75 / Fold change vs veh, WDR75 / RFU, AHCTF1 / Fold change vs veh, AHCTF1 / RFU, TFRC / Fold change vs veh, TFRC / RFU, ZDHHC17 / Fold change vs veh, ZDHHC17 / RFU, NOM1 / Fold change vs veh, NOM1 / RFU, ARL8B / Fold change vs veh, ARL8B / RFU, ZBTB11 / Fold change vs veh, ZBTB11 / RFU, TAMM41 / Fold change vs veh, TAMM41 / RFU, KIAA1704 /// LOC100996395 / Fold change vs veh, KIAA1704 /// LOC100996395 / RFU, ING1 / Fold change vs veh, ING1 / RFU, TRMT61B / Fold change vs veh, TRMT61B / RFU, FUBP3 / Fold change vs veh, FUBP3 / RFU, TP53 / Fold change vs veh, TP53 / RFU, TNKS2 / Fold change vs veh, TNKS2 / RFU, ZFP14 / Fold change vs veh, ZFP14 / RFU, ACTR2 / Fold change vs veh, ACTR2 / RFU, PPP3R1 / Fold change vs veh, PPP3R1 / RFU, PIK3R1 / Fold change vs veh, PIK3R1 / RFU, HNRNPA1 / Fold change vs veh, HNRNPA1 / RFU, RNF170 / Fold change vs veh, RNF170 / RFU, ZNF28 / Fold change vs veh, ZNF28 / RFU, RNGTT / Fold change vs veh, RNGTT / RFU, OGT / Fold change vs veh, OGT / RFU, BRD1 / Fold change vs veh, BRD1 / RFU, MARS / Fold change vs veh, MARS / RFU, ZNF655 / Fold change vs veh, ZNF655 / RFU, FAHD1 / Fold change vs veh, FAHD1 / RFU, BDP1 / Fold change vs veh, BDP1 / RFU, LRRCC1 / Fold change vs veh, LRRCC1 / RFU, ARID1A / Fold change vs veh, ARID1A / RFU, ZNF146 / Fold change vs veh, ZNF146 / RFU, ZNF330 / Fold change vs veh, ZNF330 / RFU, GPN3 / Fold change vs veh, GPN3 / RFU, C9orf123 / Fold change vs veh, C9orf123 / RFU, N4BP2L2 / Fold change vs veh, N4BP2L2 / RFU, ARFIP1 / Fold change vs veh, ARFIP1 / RFU, FAM179B / Fold change vs veh, FAM179B / RFU, BCL10 / Fold change vs veh, BCL10 / RFU, UHRF1BP1L / Fold change vs veh, UHRF1BP1L / RFU, BET1 / Fold change vs veh, BET1 / RFU, CNOT2 / Fold change vs veh, CNOT2 / RFU, ZNF268 / Fold change vs veh, ZNF268 / Fold change vs veh, ZNF507 / RFU, DGCR2 / Fold change vs veh, DGCR2 / RFU, WDSUB1 / Fold change vs veh, WDSUB1 / Fold change vs veh, HSP90B1 /// MIR3652 / RFU, ADSS / Fold change vs veh, ADSS / RFU, GK / Fold change vs veh, GK / RFU, ZNF148 / Fold change vs veh, ZNF148 / RFU, TAF9 / Fold change vs veh, TAF9 / RFU, SLC1A5 / Fold change vs veh, SLC1A5 / RFU, SLMO2 / Fold change vs veh, SLMO2 / RFU, ABCC4 / Fold change vs veh, ABCC4 / RFU, LOC101060439 /// RAP1B / Fold change vs veh, LOC101060439 /// RAP1B / RFU, RFX7 / Fold change vs veh, RFX7 / RFU, GTPBP10 / Fold change vs veh, GTPBP10 / RFU, CNEP1R1 / Fold change vs veh, CNEP1R1 / RFU, BIVM-ERCC5 /// ERCC5 / Fold change vs veh, BIVM-ERCC5 /// ERCC5 / RFU, ILF3 / Fold change vs veh, ILF3 / RFU 11762660_at / Fold change /veh 11762660_at / RFU VCAN (11757783_s_at) / Fold change /veh VCAN (11757783_s_at) / RFU DDX43 (11728927_at) / Fold change /veh DDX43 (11728927_at) / RFU KRT8 (11758188_x_at) / Fold change /veh KRT8 (11758188_x_at) / RFU NKD1 (11759106_at) / Fold change /veh NKD1 (11759106_at) / RFU SRD5A1 (11742802_a_at) / Fold change /veh SRD5A1 (11742802_a_at) / RFU TPSAB1 /// TPSB2 (11721975_s_at) / Fold change /veh TPSAB1 /// TPSB2 (11721975_s_at) / RFU GSTM3 (11746129_a_at) / Fold change /veh GSTM3 (11746129_a_at) / RFU IL23R (11737362_x_at) / Fold change /veh IL23R (11737362_x_at) / RFU TMEM51 (11727254_a_at) / Fold change /veh TMEM51 (11727254_a_at) / RFU PIWIL2 (11732686_x_at) / Fold change /veh PIWIL2 (11732686_x_at) / RFU ORM1 (11744905_x_at) / Fold change /veh ORM1 (11744905_x_at) / RFU CCDC152 (11743942_at) / Fold change /veh CCDC152 (11743942_at) / RFU ECM1 (11717891_a_at) / Fold change /veh ECM1 (11717891_a_at) / RFU IL23R (11748794_a_at) / Fold change /veh IL23R (11748794_a_at) / RFU TNFAIP8L3 (11732012_x_at) / Fold change /veh TNFAIP8L3 (11732012_x_at) / RFU MBOAT4 (11741988_at) / Fold change /veh MBOAT4 (11741988_at) / RFU 11764193_at / Fold change /veh 11764193_at / RFU TMEM53 (11763286_at) / Fold change /veh TMEM53 (11763286_at) / RFU MAGEB2 (11727129_at) / Fold change /veh MAGEB2 (11727129_at) / RFU TMEM200A (11744735_a_at) / Fold change /veh TMEM200A (11744735_a_at) / RFU CCDC152 (11751479_a_at) / Fold change /veh CCDC152 (11751479_a_at) / RFU FAM211A (11726209_a_at) / Fold change /veh FAM211A (11726209_a_at) / RFU RGS16 (11746705_a_at) / Fold change /veh RGS16 (11746705_a_at) / RFU VCAN (11755009_s_at) / Fold change /veh VCAN (11755009_s_at) / RFU RHOB (11743442_s_at) / Fold change /veh RHOB (11743442_s_at) / RFU RGS16 (11720943_a_at) / Fold change /veh RGS16 (11720943_a_at) / RFU RGS16 (11720944_at) / Fold change /veh RGS16 (11720944_at) / RFU, VPS4B / Fold change vs veh, VPS4B / RFU, CREB1 / Fold change vs veh, CREB1 / RFU, DNAJC13 / Fold change vs veh, DNAJC13 / RFU, GNAQ / Fold change vs veh, GNAQ / RFU, CDK5R1 / Fold change vs veh, CDK5R1 / RFU, ZRANB3 / Fold change vs veh, ZRANB3 / RFU, CUL4A / Fold change vs veh, CUL4A / RFU, CCNY / Fold change vs veh, CCNY / RFU, UFL1 / Fold change vs veh, UFL1 / RFU, COG3 / Fold change vs veh, COG3 / RFU, DIAPH2 / Fold change vs veh, DIAPH2 / RFU, SKA2 / Fold change vs veh, SKA2 / RFU, AFF3 / Fold change vs veh, AFF3 / RFU, LMF1 / Fold change vs veh, LMF1 / RFU, IPO11 / Fold change vs veh, IPO11 / RFU, DFFB / Fold change vs veh, DFFB / RFU, FOXP1 / Fold change vs veh, FOXP1 / RFU, CARD8 / Fold change vs veh, CARD8 / RFU, STRN3 / Fold change vs veh, STRN3 / RFU, ADK / Fold change vs veh, ADK / RFU, RASSF2 / Fold change vs veh, RASSF2 / RFU, WIPF1 / Fold change vs veh, WIPF1 / RFU, LARP1B / Fold change vs veh, LARP1B / RFU, RASA1 / Fold change vs veh, RASA1 / RFU, RB1 / Fold change vs veh, RB1 / RFU, PPFIA1 / Fold change vs veh, PPFIA1 / RFU, MAT2A / Fold change vs veh, MAT2A / RFU, CCT5 / Fold change vs veh, CCT5 / RFU, WDR92 / Fold change vs veh, WDR92 / RFU, CUX1 / Fold change vs veh, CUX1 / RFU, TTC7A / Fold change vs veh, TTC7A / RFU, TMEM135 / Fold change vs veh, TMEM135 / RFU, DEPTOR / Fold change vs veh, DEPTOR / RFU, CPM / Fold change vs veh, CPM / RFU, DNAJB6 / Fold change vs veh, DNAJB6 / RFU, CACNA2D3 / Fold change vs veh, CACNA2D3 / RFU, DTX4 / Fold change vs veh, DTX4 / RFU, TFCP2 / Fold change vs veh, TFCP2 / RFU, GMCL1 /// GMCL1P1 / Fold change vs veh, GMCL1 /// GMCL1P1 / RFU, AEBP2 / Fold change vs veh, AEBP2 / RFU, SNHG1 /// SNORD22 /// SNORD25 /// SNORD26 /// SNORD27 /// SNORD28 /// SNORD29 /// SNORD31 / Fold change vs veh, SNHG1 /// SNORD22 /// SNORD25 /// SNORD26 /// SNORD27 /// SNORD28 /// SNORD29 /// SNORD31 / Fold change (Aza/veh), C12orf56 (ProbeSet 11735607_a_at) / Fold change (ACY-1035/veh), C12orf56 (ProbeSet 11735607_a_at) / Fold change (Aza/veh), FGFR1OP (ProbeSet 11751329_s_at) / Fold change (ACY-1035/veh), FGFR1OP (ProbeSet 11751329_s_at) / Fold change (Aza/veh), VPS36 (ProbeSet 11739960_a_at) / Fold change (ACY-1035/veh), VPS36 (ProbeSet 11739960_a_at) / RFU SYPL1 (11715823_x_at) / Fold change /veh SYPL1 (11715823_x_at) / RFU IGFBP7 (11715501_s_at) / Fold change /veh IGFBP7 (11715501_s_at) / RFU REEP3 (11722064_at) / Fold change /veh REEP3 (11722064_at) / RFU IGLL1 (11728026_x_at) / Fold change /veh IGLL1 (11728026_x_at): dose or concentration left out as unconfirmed
Details: MV-4-11 cells, 48 hours

Nc1ncn([C@@H]2O[C@H](CO)[C@@H](O)[C@H]2O)c(=O)n1 [azacitidine]
Fold change /veh CMKLR1 (11741424_a_at): 1.02
